From US11083720B2, “Indazole inhibitors of fructokinase (KHK) and methods of use in treating KHK-mediated disorders or diseases” (REGENTS OF THE UNIVERSITY OF COLORADO, A BODY CORPORATE, priority 2017, dated 2021)

These compounds were tested on aldoB−/− KO mice (assay: Fructose-induced hypoglycemia in Aldolase B Knockout Mice). Conditions: 25 mg/kg IP 30 min before and repeated at oral fructose gavage (1.5 g/kg), glucose over 90 minutes.
Format: in vivo
Text: Example 12 describes fructokinase inhibition results and fructose-induce hypoglycemia prevention results obtained from in vivo assay in Aldolase B Knockout Mice. Hereditary Fructose intolerance is a rare genetic disease due to deficiency of aldolase B that is associated with over activation of KHK-C. One of the key features in these individuals is the development of acute hypoglycemia following exposure to fructose ingestion due to rapid uptake of glucose into the liver with the formation of glycogen. Recently, an aldolase-B KO (aldoB^−/−) mouse that has the clinical features of HFI in humans was developed. These mice develop immediate dose-dependent hypoglycemia in response to fructose, but also develop fatty liver within days of low grade fructose feeding.
The procedure used in Example 12 consisted of first fasting animals for six hours, followed by the administration of fructose by oral gavage (45 mg fructose, equivalent to 1.5 g/kg body weight) or vehicle (water) to mice and following serum glucose levels over 90 minutes by measuring glucose with a glucometer from tail snip bleeds. With vehicle administration serum glucose stays normal, but when fructose is administered to aldolase B knockout mice a progressive fall in serum glucose occurs, as noted by the percent (%) of the baseline level. […]
`Cc1cccc(-n2ncc3ccc(NC(=O)C4CNC4)cc32)c1` [Compound C-25, N-(1-(m-tolyl)-1H-indazol-6-yl)azetidine-3-carboxamide] was tested, and the “hypoglycemic response to fructose (serum glucose, % of baseline)” value was “hypoglycemic response was prevented”.

These compounds were tested against KHK-C (Homo sapiens (Human), UniProt P50053) (assay: 3-step coupled-enzyme KHK assay (KHK, PK, LDH; NADH disappearance)). Conditions: recombinant KHK-C, 1 mM fructose, A340 at 37° C.
Sequence of KHK-C (P50053 whole entry): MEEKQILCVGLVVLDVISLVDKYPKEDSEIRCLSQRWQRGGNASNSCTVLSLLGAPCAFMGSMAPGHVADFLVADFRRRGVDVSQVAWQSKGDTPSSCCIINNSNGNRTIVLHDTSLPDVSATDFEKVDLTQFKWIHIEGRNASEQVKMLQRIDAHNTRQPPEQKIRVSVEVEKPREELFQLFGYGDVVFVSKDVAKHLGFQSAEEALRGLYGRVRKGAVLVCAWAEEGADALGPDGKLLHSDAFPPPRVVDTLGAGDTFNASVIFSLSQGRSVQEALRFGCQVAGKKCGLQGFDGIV
Format: biochemical
Experimental: Specific high-throughput screening assays were developed for KHK-C and KHK-A using recombinant proteins. Purified human recombinant KHK-C and KHK-A were produced using the Bio-Rad Profinity eXact Fusion-Tag System and Profinia protein purification instrument. The assays consist of a 3-step, coupled-enzyme process involving fructokinase (KHK), pyruvate kinase (PK) and lactate dehydrogenase (LDH). ^1,2 The disappearance of NADH is measured kinetically by A340 at 37° C. The enzymatic assay was carried out in a total reaction volume of 200 ul containing 50 mM PIPES, 6 mM MgCl2, 100 mM KCl, 100 uM-5 mM ATP, 2 mM phosphoenolpyruvate, 0.3 mM NADH, 15 U of pyruvate kinase, 15 U of lactate dehydrogenase, and 75-1000 ng KHKC. 1 mM fructose was added to the reactions, except for the no fructose controls which utilized water. The high-throughput assay was used to identify inhibitors that have an IC50 value <5 μM for KHK-C.^5 The '559 pub also sets forth a KHK assay for testing inhibition activity of potential KHK inhibitors.
Compound `Cc1cccc(-n2ncc3ccc(NC(=O)C4CCN4)cc32)c1` (stereo not shown) [Compound C-72] has an IC50 of 1200 nM.
With `Cc1cccc(-n2ncc3ccc(-c4ccnc(N)c4)cc32)c1` [Compound C-5, 4-(1-(m-tolyl)-1H-indazol-6-yl)pyridin-2-amine] the IC50 was 280 nM.
In the case of `Cc1cccc(-n2ncc3ccc(C(=O)NC4CCNCC4)cc32)c1` [Compound C-32, N-(piperidin-4-yl)-1-(m-tolyl)-1H-indazole-6-carboxamide], the IC50 is reported as 790 nM.
`Nc1cc(-c2ccc3c(C4CC4)nn(-c4ccccc4)c3c2)ccn1` [Compound C-28, 4-(3-cyclopropyl-1-phenyl-1H-indazol-6-yl)pyridin-2-amine] showed an IC50 of 700 nM.
With `O=C(NC1CCNCC1)c1ccc2cnn(-c3ccccc3)c2c1` [Compound C-26, 1-phenyl-N-(piperidin-4-yl)-1H-indazole-6-carboxamide] the IC50 was 2300 nM.
Compound `Cc1cccc(-n2ncc3ccc(NC(=O)C4CNC4)cc32)c1` [Compound C-25, N-(1-(m-tolyl)-1H-indazol-6-yl)azetidine-3-carboxamide] has an IC50 of 510 nM.
`Cc1cccc(-n2ncc3ccc(C(=O)NC4CNC4)cc32)c1` [Compound C-33, N-(azetidin-3-yl)-1-(m-tolyl)-1H-indazole-6-carboxamide] was tested, and the IC50 was 2300 nM.
Compound `O=C(NC1CNC1)c1ccc2cnn(-c3ccccc3)c2c1` [Compound C-34, N-(azetidin-3-yl)-1-phenyl-1H-indazole-6-carboxamide] has an IC50 of 580 nM.

Same assay, conditions: recombinant KHK-C, 1 mM fructose, A340 at 37° C.; heading: IC50 Result
In the case of `Nc1cc(-c2ccc3cnn(-c4ccccc4)c3c2)ccn1` [Compound C-1, 4-(1-phenyl-1H-indazol-6-yl)pyridin-2-amine], the IC50 is reported as 1170 nM.
